{"source": "paper PMC9184693", "about": "“Molecular mechanism of interaction between fatty acid delta 6 desaturase and acyl-CoA by computational prediction” (AMB Express, 2022)", "molecular_target": "T1, MpFADS6 (Micromonas pusilla delta 6 desaturase) (Micromonas pusilla, UniProt C1MMV2)", "T1 construct": "gene MICPUCDRAFT_32578; pYES2-MpFADS6 expressed in Saccharomyces cerevisiae INVSc1; membrane protein, whole-cell biotransformation", "T1 sequence (C1MMV2 entry or part of it)": "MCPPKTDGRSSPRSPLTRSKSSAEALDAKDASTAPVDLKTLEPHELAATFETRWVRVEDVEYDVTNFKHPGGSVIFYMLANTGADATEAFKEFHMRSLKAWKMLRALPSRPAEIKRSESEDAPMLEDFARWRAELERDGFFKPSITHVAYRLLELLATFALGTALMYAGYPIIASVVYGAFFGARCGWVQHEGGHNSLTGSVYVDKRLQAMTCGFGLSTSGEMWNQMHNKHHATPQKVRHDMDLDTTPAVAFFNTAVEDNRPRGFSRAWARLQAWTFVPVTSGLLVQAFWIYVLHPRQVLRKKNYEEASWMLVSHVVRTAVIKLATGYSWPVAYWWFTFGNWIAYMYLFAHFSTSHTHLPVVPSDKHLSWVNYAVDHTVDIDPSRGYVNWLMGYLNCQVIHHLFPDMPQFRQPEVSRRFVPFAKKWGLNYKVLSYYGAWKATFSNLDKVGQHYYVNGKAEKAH", "experiment": "whole-cell biotransformation in yeast, GC-MS of fatty acid methyl esters", "format": "cell-based", "details": "product from 0.25 mM ALA fed to cells; formed as the acyl-CoA", "data": [{"smiles": "CC/C=C\\C/C=C\\C/C=C\\C/C=C\\CCCCC(=O)O", "note": "[stearidonic acid]", "values": [{"measurement": "whole-cell biotransformation in yeast, GC-MS of fatty acid methyl esters", "value": "Desaturase activity is represented by the conversion rate of ALA to SDA"}]}]}
